The text below walks through data of publication PMC12623744 (Scientific Reports, 2025).

Data set [1] is described as follows: Peptide stability in medium (Jurkat E6.1 cell supernatant). Type of data set: in vitro ADME. To be noted: human, Jurkat E6.1 cell supernatant (conditioned culture medium), Jurkat E6.1 cell supernatant (RPMI 1640, 10% FBS), 1.5 mg/mL peptide, 37 °C with stirring, RP-HPLC peak area vs peptide in water at time 0, triplicate. The method, then:
The inhibitory effects of the peptides were also evaluated using cell line-based platform, but before performing this tests, the stability of peptides in medium used in co-culture and cytotoxicity towards cell lines used in the experiments had to be determined. After 24 h of incubation (the time when the peptides are incubated with cells), there is a clear difference in stability between peptides based on one of the interaction centres (light1 and 2 – stability is 88% and 77% respectively) and between those based on the other centre (light3, 4 and 3_E178L – stability ranging from 49% to 29%). However, all peptides, despite some degradation, are present in the sample during the experiment (Figure S5).
HVEM light1 light light light _E178L
Figure S8 . SpS binding check experiments for selected LIGHT-derived peptides and HVEM compared to negative control (HVEM protein without any ligand). Dotted line represents three times the standard deviation range. […]
experiments. […]
Peptide stability was assessed using the supernatant from the Jurkat E6.1 cell line. […] The samples were analyzed by reverse-phase high-performance liquid chromatography (RP-HPLC) on a Kromasil C8 column ([…] × 4.6 mm, 5 μm) using a gradient of 5% to 100% solvent B over 60 minutes. […]
The cytotoxic effects of the peptides were evaluated on two cell lines: Jurkat E6.1 and TCS-Ctrl (a modified BW5147 cell line). […]

Data set [2] has as its system HVEM/LIGHT interaction (NF-κB::eGFP activation). In words: Cellular reporter assay: JE6.1-NF-κB::eGFP HVEM reporter cells stimulated with TCS LIGHT. It is filed as cell-based. Particulars: relative to co-culture without peptides = 100%; highest tested concentration (50 µM chosen as highest); 24 h co-culture; three experiments in triplicate. From the text: Reporter cells expressing the HVEM protein (JE6.1-NF-κB::eGFP HVEM) and T cell stimulators expressing LIGHT (TCS LIGHT) were utilized in cellular assays and the principle of this cell-based assay has been described in detail in previous publication. In short, when the peptides inhibited the HVEM/LIGHT interaction, a reduction in NF-κB activation was observed, accompanied by a corresponding decrease in enhanced green fluorescent protein (eGFP) levels. The percentage of reporter cell activation was calculated relative to a control condition, which was reporter cell co-cultured with TCS without peptides.
The experiments utilized the JE6.1-NF-κB::eGFP HVEM (modified Jurkat), TCS LIGHT, TCS Crtl and TCS CD86 Ctrl cell lines (modified BW5147) which have been described in earlier studies^57,58. Jurkat E6.1 cell line (describe in Supplementary Materials) was purchased from Cell Line Service GmbH, while the JE6.1-NF-κB::eGFP HVEM, TCS LIGHT, TCS Crtl and TCS CD86 Ctrl cell lines are property of the laboratory of Prof. […] The plates were incubated for 20 min at 4 °C, washed with FACS buffer (PBS, 5–10% FBS, 0.1% NaN₃), and resuspended in 50 µL of fresh FACS buffer. eGFP expression was measured using a CytoFLEX flow cytometer (Beckman Coulter, USA). Data were analyzed using FlowJo v10.10 (FlowJo LLC, USA) and GraphPad Prism (San Diego, USA) with univariate ANOVA and Dunnett’s post-hoc test. […]
(In a reporter assay the amount or activity of a reporter protein is the signal.)

The subject of another data set is HVEM/LIGHT complex. In words: Competitive ELISA, inhibition of HVEM/LIGHT complex formation. It is filed as biochemical, human. To be noted: coated HVEM-His 6 µg/mL, LIGHT-Fc 2 µg/mL, highest concentration tested (50 µM). The procedure: To assess the inhibitory properties of the peptides the ELISA was conducted. Based on the obtained results, it can be concluded that the inhibitory properties of the peptides are strongly correlated with their affinity to HVEM as determined by theoretical methods, as well as with those measured by SpS.
ELISA was conducted using transparent polystyrene 96-well plates (Brand, Wertheim, Germany). Wells were coated with HVEM-His protein at concentration 6 µg/mL dissolved in PBS-T (100 µL per well) and incubated overnight at 4 °C. Unbound sites on the wells by HVEM were blocked with 5% bovine serum albumin (BSA) in PBS-T (200 µL per well). Peptides at three concentrations 50 µM, 12.5 µM, and 3.125 µM dissolved in PBS-T were added and incubated (200 µL per well). […] In the next step horseradish peroxidase (HRP)-conjugated goat antibody (Bio-Rad, Hercules, USA) at dilution 1:3000 in PBS-T (100µL per well) was applied. After each step, wells were washed five times with 200 µL of PBS-T. Incubations were carried out at 37 °C for 2 h, except for the antibody, which was incubated for 1 h. Finally, 200 µL of TMB substrate (Thermo Fisher Scientific,Waltham, MA, USA) was added, and after 15 min of incubation in the dark, absorbance was measured at 492 nm and 650 nm using an Infinite M200 Pro reader (Tecan, Switzerland). The negative control consisted of PBS-T buffer without peptides, while the positive control was mouse anti-human HVEM antibodies (1 µg/well, Bio-Rad, Hercules, CA, USA; #MCA6072GA). Each experiment was performed in three biological replicates, each consisting of three technical replicates and data were analyzed using one-way ANOVA with Dunnett’s post-hoc test in GraphPad Prism (San Diego, USA).
(In general: An ELISA detects its analyte on a solid surface through an enzyme-linked reagent.)

Positions of bridges follow the written chain, without caps; N, C: chain ends. Non-standard residues stand in square brackets, D forms with d. Residues, ends and D or L forms follow the SMILES beside them. Nle = CCCC[C@H](N)C(=O)O

With `CCCC[C@H](NC(=O)[C@H](Cc1ccccc1)NC(=O)[C@H](C)NC(=O)CNC(=O)[C@@H]1CSSC[C@H](NC(=O)[C@@H](NC(=O)[C@@H](NC(=O)[C@H](CCC(=O)O)NC(=O)[C@H](CCC(=O)O)NC(=O)CNC(=O)[C@H](C)NC(=O)[C@H](CCC(=O)O)NC(C)=O)C(C)C)C(C)C)C(=O)N[C@@H](CCCNC(=N)N)C(=O)N[C@@H](C(C)C)C(=O)N[C@@H](CC(C)C)C(=O)N[C@@H](CC(=O)O)C(=O)N[C@@H](CCC(=O)O)C(=O)N[C@@H](CCCNC(=N)N)C(=O)N[C@@H](CC(C)C)C(=O)N[C@@H](C(C)C)C(=O)N[C@@H](CCCNC(=N)N)C(=O)N[C@@H](CC(C)C)C(=O)N[C@@H](CCCNC(=N)N)C(=O)N[C@@H](CC(=O)O)C(=O)NCC(=O)N[C@@H]([C@@H](C)O)C(=O)N[C@@H](CCCNC(=N)N)C(=O)N[C@@H](CO)C(=O)N[C@@H](Cc2ccc(O)cc2)C(=O)N1)C(=O)N[C@H](C(N)=O)C(C)C` [light1] (Ac-EAGEEVVCRVLDERLVRLRDGTRSYCGAF[Nle]V-NH2; disulfide 8-26), the amount remaining (usually what is left of the initial amount, in per cent) at 24 h, 1.5 mg/mL in data set [1] was 88%. Same read-out and setting: to `CC(=O)N[C@@H](CCC(=O)O)C(=O)N[C@H]1CSSC[C@@H](C(=O)N[C@H](C(N)=O)C(C)C)NC(=O)[C@H](Cc2ccccc2)NC(=O)[C@H](C)NC(=O)CNC(=O)[C@H](Cc2ccccc2)NC(=O)[C@H](Cc2ccc(O)cc2)NC(=O)[C@H](CO)NC(=O)[C@H](CCCNC(=N)N)NC(=O)[C@H]([C@@H](C)O)NC(=O)CNC(=O)[C@H](CC(=O)O)NC(=O)[C@H](CCCNC(=N)N)NC(=O)[C@H](CC(C)C)NC(=O)[C@H](CCCNC(=N)N)NC(=O)[C@H](C(C)C)NC(=O)[C@H](CC(C)C)NC(=O)[C@H](CCCNC(=N)N)NC(=O)[C@H](CCC(=O)O)NC(=O)[C@H](CC(=O)O)NC(=O)[C@H](CC(C)C)NC(=O)[C@H](C(C)C)NC(=O)[C@H](CCCNC(=N)N)NC(=O)[C@H](C(C)C)NC(=O)[C@H](C(C)C)NC(=O)[C@H](C(C)C)NC(=O)[C@H](CCC(=O)O)NC(=O)[C@H](CCC(=O)O)NC(=O)CNC1=O` [light2] (Ac-ECGEEVVVRVLDERLVRLRDGTRSYFGAFCV-NH2; disulfide 2-30) belongs 77%.

`CC(=O)N[C@H](C(=O)N[C@H]1CSSC[C@@H](C(=O)N[C@@H](CO)C(N)=O)NC(=O)[C@H](CCC(N)=O)NC(=O)[C@H](CO)NC(=O)[C@H](C(C)C)NC(=O)[C@H](CC(C)C)NC(=O)[C@H](CC(C)C)NC(=O)[C@H](CCC(=O)O)NC(=O)[C@H](CC(C)C)NC(=O)[C@H](CCC(=O)O)NC(=O)[C@H](CCC(=O)O)NC(=O)[C@@H]2CCCN2C(=O)[C@H](Cc2ccc(O)cc2)NC(=O)[C@H](CCCNC(=N)N)NC(=O)[C@@H]2CCCN2C(=O)[C@H]([C@@H](C)O)NC(=O)[C@H](CCCNC(=N)N)NC(=O)[C@H](CCCCN)NC(=O)[C@H](Cc2ccc(O)cc2)NC(=O)[C@H](CC(C)C)NC(=O)CNC(=O)[C@H](Cc2c[nH]cn2)NC(=O)[C@H]([C@@H](C)O)NC1=O)[C@@H](C)O` [light3] (Ac-TCTHGLYKRTPRYPEELELLVSQCS-NH2; disulfide 2-24): the “reporter cell activation level” value in data set [2] turned out to be 78%. Besides, in the data set with HVEM/LIGHT complex, the “inhibition of HVEM/LIGHT complex formation” value is on record as 22%. Taken in the same sequence, the figures for `CC(=O)N[C@H](C(=O)N[C@H]1CSSC[C@@H](C(=O)N[C@@H](CO)C(N)=O)NC(=O)[C@H](CCC(N)=O)NC(=O)[C@H](CO)NC(=O)[C@H](C(C)C)NC(=O)[C@H](CC(C)C)NC(=O)[C@H](CC(C)C)NC(=O)[C@H](CC(C)C)NC(=O)[C@H](CC(C)C)NC(=O)[C@H](CCC(=O)O)NC(=O)[C@H](CCC(=O)O)NC(=O)[C@@H]2CCCN2C(=O)[C@H](Cc2ccc(O)cc2)NC(=O)[C@H](CCCNC(=N)N)NC(=O)[C@@H]2CCCN2C(=O)[C@H]([C@@H](C)O)NC(=O)[C@H](CCCNC(=N)N)NC(=O)[C@H](CCCCN)NC(=O)[C@H](Cc2ccc(O)cc2)NC(=O)[C@H](CC(C)C)NC(=O)CNC(=O)[C@H](Cc2c[nH]cn2)NC(=O)[C@H]([C@@H](C)O)NC1=O)[C@@H](C)O` [light3_E178L] (Ac-TCTHGLYKRTPRYPEELLLLVSQCS-NH2; disulfide 2-24) were 74% and 19%.
